Usually efflux ratio stands for the permeability from basolateral to apical divided by that in the opposite direction, in the common usage. As a reminder, the IC50 is the concentration at which inhibition is half-maximal. The term inhibition denotes the share of the control response that was lost under treatment. Read a low inhibition as a response near the control. Broadly, the half-life is the time needed for the level to fall by half in the phase considered. A high value points to slow loss.

Structures are written as SMILES.

We go through two compounds from ChEMBL document CHEMBL3853265 (Medchemcomm, 2016).

For data set [1], the system named is Rattus norvegicus. Kind of data set: Toxicity in Wistar Han rat at <= 100 mg/kg/day, po administered for 14 days by macroscopic analysis. It is filed as organism-based. The settings on record: in vivo, 336 h.
The nature of data set [2]: Plasma clearance in dog at 1 mg/kg, iv and 3 mg/kg, po. It is filed as ADME, organism-based, Canis lupus familiaris.
Data set [3] can be described thus: Oral bioavailability in dog at 3 mg/kg. It is filed as ADME, organism-based, Canis lupus familiaris. The settings on record: in vivo.
In data set [4] the test system is Rattus norvegicus. In words: Toxicity in Wistar Han rat assessed as moribundity at 300 mg/kg, po administered as single dose. The following applies: in vivo. Format: organism-based.
The subject of data set [5] is Rattus norvegicus. In words: Toxicity in Wistar Han rat assessed as mortality at 300 mg/kg, po administered as single dose. Format: organism-based. The settings on record: in vivo.
Data set [6] is described as follows: Unbound Cmax in Wistar Han rat at 100 mg/kg, po […] measured on day 14. Format: ADME, organism-based. The settings on record: in vivo.
A short description of data set [7]: Unbound clearance in dog at 1 mg/kg, iv and 3 mg/kg, po. It is filed as ADME, organism-based, Canis lupus familiaris. The following applies: in vivo.
Data set [8] can be described thus: Average plasma concentration in Wistar Han rat at 10 mg/kg, po administered as single dose measured on day 14. Format: ADME, organism-based. The following applies: in vivo.
The nature of data set [9]: Unbound clearance in dog at 0.363 mg/kg, iv and 0.737 mg/kg, po. It is filed as ADME, organism-based, Canis lupus familiaris. The settings on record: in vivo.
For data set [10], the target named is T1, BCRP (ABCG2) (Homo sapiens, UniProt Q9UNQ0).
T1 sequence (Q9UNQ0 whole entry): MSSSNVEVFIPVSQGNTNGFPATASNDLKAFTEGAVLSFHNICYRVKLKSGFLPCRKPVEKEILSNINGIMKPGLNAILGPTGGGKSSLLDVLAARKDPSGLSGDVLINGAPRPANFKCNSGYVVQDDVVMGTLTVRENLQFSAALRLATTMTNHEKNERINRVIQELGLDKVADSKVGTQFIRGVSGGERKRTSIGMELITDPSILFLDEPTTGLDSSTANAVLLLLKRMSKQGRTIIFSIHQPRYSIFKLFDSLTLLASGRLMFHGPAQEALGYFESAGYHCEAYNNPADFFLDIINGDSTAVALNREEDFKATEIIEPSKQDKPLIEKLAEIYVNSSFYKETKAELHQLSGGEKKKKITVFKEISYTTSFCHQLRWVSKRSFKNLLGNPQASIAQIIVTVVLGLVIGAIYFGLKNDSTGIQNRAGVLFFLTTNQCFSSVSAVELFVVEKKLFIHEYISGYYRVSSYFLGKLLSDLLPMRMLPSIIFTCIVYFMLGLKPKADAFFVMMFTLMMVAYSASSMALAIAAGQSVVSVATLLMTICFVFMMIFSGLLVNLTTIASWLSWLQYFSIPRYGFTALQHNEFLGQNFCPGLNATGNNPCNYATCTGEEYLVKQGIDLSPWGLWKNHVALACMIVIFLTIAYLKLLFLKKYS
In words: Substrate activity at BCRP (unknown origin) assessed as efflux ratio of permeability. It is filed as ADME. The settings on record: not told.

Data set [11] can be described thus: Toxicity in dog assessed as uncontrollable panting at 30 mg/kg, po administered as single dose. Format: organism-based, Canis lupus familiaris. The following applies: in vivo.
A short description of data set [12]: Drug recovery in bile of bile duct cannulated rat. Format: ADME. The settings on record: read-out: Drug recovery.
Data set [13] addresses T2, Cytochrome P450 2C8 (Homo sapiens, UniProt P10632).
T2 sequence (P10632 whole entry): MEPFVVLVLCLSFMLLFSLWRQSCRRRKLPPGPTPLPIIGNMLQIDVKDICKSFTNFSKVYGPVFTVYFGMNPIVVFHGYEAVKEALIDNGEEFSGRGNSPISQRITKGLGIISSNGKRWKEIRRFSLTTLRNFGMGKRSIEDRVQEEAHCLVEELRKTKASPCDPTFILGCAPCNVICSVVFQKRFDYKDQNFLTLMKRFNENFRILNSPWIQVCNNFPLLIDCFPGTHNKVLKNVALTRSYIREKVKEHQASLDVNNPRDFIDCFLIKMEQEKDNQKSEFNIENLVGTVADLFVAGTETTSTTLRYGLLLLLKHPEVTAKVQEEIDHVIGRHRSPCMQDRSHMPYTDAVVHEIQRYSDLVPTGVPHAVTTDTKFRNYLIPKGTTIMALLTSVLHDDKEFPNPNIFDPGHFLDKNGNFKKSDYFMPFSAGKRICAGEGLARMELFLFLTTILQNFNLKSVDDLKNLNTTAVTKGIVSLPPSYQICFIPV
Kind of data set: Inhibition of CYP2C8 (unknown origin). It is filed as ADME.

The nature of data set [14]: Drug metabolism in rat hepatocytes assessed as glucuronidation in presence of glutathione and water. Format: ADME, cell-based, Hepatocyte.
The nature of data set [15]: Toxicity in dog assessed as increase in body temperature at 10 mg/kg, po administered as single dose. Format: organism-based, Canis lupus familiaris. The following applies: in vivo.
In data set [16] the test system is Rattus norvegicus. In words: Toxicity in Wistar Han rat assessed as centrilobular hepatocyte hypertrophy at 100 mg/kg/day, po administered for 14 days. Format: organism-based. The following applies: hepatocytes, 336 h.
The target of data set [17] is Cytochrome P450 2C9 (Homo sapiens, UniProt P11712). In words: Inhibition of CYP2C9 (unknown origin). It is filed as ADME.
Data set [18] deals with Rattus norvegicus. Kind of data set: Toxicity in Wistar Han rat assessed as increase in lymphocyte counts at >= 30 mg/kg/day, po administered for 14 days. Format: organism-based. The following applies: in vivo, 336 h.
The target of data set [19] is Cytochrome P450 2D6 (Homo sapiens, UniProt P10635). Kind of data set: Inhibition of CYP2D6 (unknown origin). It is filed as ADME.
The nature of data set [20]: Toxicity in dog assessed as increase in heart rate at 30 mg/kg, po administered as single dose. It is filed as organism-based, Canis lupus familiaris. The following applies: in vivo.
Data set [21] in a line: Drug metabolism in rat hepatocytes assessed as glucuronidation in presence of glutathione. Format: ADME, cell-based, Hepatocyte.
Data set [22] is described as follows: Toxicity in po dosed dog administered as single dose. Format: organism-based, Canis lupus familiaris. The settings on record: in vivo.
Data set [23] is described as follows: Drug metabolism in human hepatocytes assessed as monooxidation. Format: ADME, cell-based, Hepatocyte.
Data set [24] concerns P-gp. In words: Substrate activity at p-gp (unknown origin) assessed as efflux ratio of permeability. It is filed as ADME. The settings on record: human, not told.
The test system of data set [25] is Rattus norvegicus. Kind of data set: Toxicity in Wistar Han rat assessed as increase in liver weight at >= 30 mg/kg/day, po administered for 14 days. It is filed as organism-based. The following applies: in vivo, 336 h.
The nature of data set [26]: Unbound Cmax in dog at 30 mg/kg, po administered as single dose. It is filed as ADME, organism-based, Canis lupus familiaris. The settings on record: in vivo.
The target in data set [27] is Cytochrome P450 3A4 (Homo sapiens, UniProt P08684). Kind of data set: Inhibition of CYP3A4 (unknown origin). Format: ADME.
Data set [28] can be described thus: Toxicity in dog assessed as emesis at 30 mg/kg, po administered as single dose measured 30 mins post dose. The settings on record: in vivo, 0.5 h. Format: organism-based, Canis lupus familiaris.
The target of data set [29] is CYP2C9 (Homo sapiens, UniProt P11712). In words: Inhibition of CYP2C9 (unknown origin) at 3 uM relative to control. Format: ADME.
Data set [30] is described as follows: Half life in dog at 0.363 mg/kg, iv and 0.737 mg/kg, po. It is filed as ADME, organism-based, Canis lupus familiaris. The following applies: in vivo.
Data set [31] is described as follows: Drug metabolism in rat liver microsomes assessed as monooxidation at phenyl and pyridine moieties. It is filed as ADME. (Liver microsomes are a subcellular fraction often used to study metabolism.)
Data set [32] can be described thus: Toxicity in dog assessed as increase in body temperature at 30 mg/kg, po administered as single dose. Format: organism-based, Canis lupus familiaris. The settings on record: in vivo.
Data set [33] in a line: Drug metabolism in rat hepatocytes assessed as monooxidation and glucuronidation. Format: ADME, cell-based, Hepatocyte.
A short description of data set [34]: Oral bioavailability in dog at 0.737 mg/kg. Format: ADME, organism-based, Canis lupus familiaris. The settings on record: in vivo.
The nature of data set [35]: Drug metabolism in rat hepatocytes assessed as monooxidation. It is filed as ADME, cell-based, Hepatocyte.
Data set [36] can be described thus: Drug metabolism in human liver microsomes assessed as monooxidation at phenyl and pyridine moieties. Format: ADME.
Data set [37] relates to Rattus norvegicus. Kind of data set: Toxicity in Wistar Han rat assessed as increase in liver to body weight ratio at >= 30 mg/kg/day, po administered for 14 days. Format: organism-based. The following applies: in vivo, 336 h.

Cytochrome P450 3A4, sequence (P08684 whole entry): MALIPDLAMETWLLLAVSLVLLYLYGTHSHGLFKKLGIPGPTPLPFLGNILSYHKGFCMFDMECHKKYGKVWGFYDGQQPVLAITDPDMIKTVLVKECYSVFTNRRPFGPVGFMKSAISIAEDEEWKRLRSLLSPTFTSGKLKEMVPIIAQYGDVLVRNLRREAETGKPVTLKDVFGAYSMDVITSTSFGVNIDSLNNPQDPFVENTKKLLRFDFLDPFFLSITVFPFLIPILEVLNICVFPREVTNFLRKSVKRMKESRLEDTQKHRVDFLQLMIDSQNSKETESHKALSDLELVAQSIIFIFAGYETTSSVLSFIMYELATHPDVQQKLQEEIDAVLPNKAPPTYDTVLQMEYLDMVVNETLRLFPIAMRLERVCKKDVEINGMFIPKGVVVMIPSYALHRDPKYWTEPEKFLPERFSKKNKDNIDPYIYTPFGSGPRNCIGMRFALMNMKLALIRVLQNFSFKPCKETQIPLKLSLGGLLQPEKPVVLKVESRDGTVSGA
Cytochrome P450 2D6, sequence (P10635 whole entry): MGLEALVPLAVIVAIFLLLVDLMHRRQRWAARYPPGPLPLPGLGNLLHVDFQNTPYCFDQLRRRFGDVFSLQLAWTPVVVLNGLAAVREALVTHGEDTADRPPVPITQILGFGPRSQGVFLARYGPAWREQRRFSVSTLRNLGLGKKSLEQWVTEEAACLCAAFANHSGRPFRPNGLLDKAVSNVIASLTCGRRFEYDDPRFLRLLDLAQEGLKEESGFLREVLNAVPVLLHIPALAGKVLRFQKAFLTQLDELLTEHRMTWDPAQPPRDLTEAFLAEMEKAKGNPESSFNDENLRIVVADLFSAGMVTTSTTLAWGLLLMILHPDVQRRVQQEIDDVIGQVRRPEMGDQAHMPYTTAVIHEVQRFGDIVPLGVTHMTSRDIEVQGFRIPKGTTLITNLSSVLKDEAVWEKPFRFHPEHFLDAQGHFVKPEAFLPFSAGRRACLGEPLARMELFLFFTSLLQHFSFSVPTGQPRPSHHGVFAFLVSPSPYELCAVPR
CYP2C9, sequence (P11712 whole entry): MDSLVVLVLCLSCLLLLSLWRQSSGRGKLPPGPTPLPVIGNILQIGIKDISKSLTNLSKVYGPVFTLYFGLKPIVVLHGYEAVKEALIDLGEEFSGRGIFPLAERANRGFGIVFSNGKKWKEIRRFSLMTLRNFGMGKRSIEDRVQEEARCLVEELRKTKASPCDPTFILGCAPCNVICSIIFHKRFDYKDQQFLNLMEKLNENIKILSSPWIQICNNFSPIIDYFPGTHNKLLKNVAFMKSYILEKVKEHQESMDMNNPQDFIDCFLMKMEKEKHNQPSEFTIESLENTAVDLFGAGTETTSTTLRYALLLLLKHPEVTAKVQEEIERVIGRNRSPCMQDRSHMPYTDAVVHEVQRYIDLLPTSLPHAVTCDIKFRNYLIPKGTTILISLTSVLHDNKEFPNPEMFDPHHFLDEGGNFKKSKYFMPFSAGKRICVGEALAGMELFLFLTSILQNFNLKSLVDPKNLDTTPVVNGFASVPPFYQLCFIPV
Cytochrome P450 2C9, sequence (P11712 whole entry): as above

Regarding `O=S(=O)(Nc1cncc(C(F)(F)F)c1)c1ccccc1C(F)(F)F`, the Activity result in data set [1] was “Non-Toxic”; in [4], “Toxic”; in data set [5], “Toxic”. In addition, the clearance in data set [2] is 1 mL/min/kg. The bioavailability in data set [3] stood at 145%. Further, in data set [6], the fCmax amounted to 2153 nM. In addition, in data set [7], the CL free worked out at 17.5 mL/min/kg.
With `O=S(=O)(Nc1ccc(C(F)(F)F)nc1)c1ccccc1C(F)(F)F`, in [8], the Cave came out at 422 nM. Further, the CL free in [9] stood at 1.4 mL/min/kg. The figures for the efflux ratio in data set [10] and in [24] were 3.3 and 1.1, respectively. Further, the Activity entry in [11] is “Toxic”; in data set [16], “Non-Toxic”; in data set [18], “Non-Toxic”; in [20], “Toxic”; in data set [25], “Non-Toxic”; in [28], “Toxic”. The Activity result in data set [37] is “Non-Toxic”. Further, in data set [12], the dose excreted is less than 1%. Moreover, the IC50 in data set [13] is more than 30 µM; in data set [17] it was 1.1 µM; in [19] it was more than 30 µM; in data set [27] it was more than 30 µM. For the same compound, the Drug metabolism result in data set [14], in data set [21], in data set [23], in data set [31], in [33] and in [35] was “Metabolite_Detected” throughout. The Drug metabolism result in [36] is given as “Metabolite_Detected”. Further, the results for the deltaT in data set [15] and in data set [32] were less than 0.4 °C and more than 1.1 °C, respectively. This compound had an MTD in data set [22] of 100 mg/kg. The compound also yielded a fCmax in data set [26] of 3.754 µM. In data set [29], this compound came in with an inhibition at 3 µM of 24%. Also, the half-life in [30] is 103 h. In data set [34], the bioavailability came to 104%.
